What follows are molecules tested against HPK1 (Homo sapiens, UniProt Q92918) (assay: SLP76 phosphorylation assay (intracellular HPK1 inhibitory activity, p-SLP76 S376 ELISA in Jurkat cells)). Settings: p-SLP76 IC50, Jurkat, Clone E6-1 cells; 1 h compound pre-incubation; anti-CD3 beads stimulation 20 min; Phospho-SLP-76 (Ser376) ELISA.
Sequence of HPK1 (Q92918 whole entry): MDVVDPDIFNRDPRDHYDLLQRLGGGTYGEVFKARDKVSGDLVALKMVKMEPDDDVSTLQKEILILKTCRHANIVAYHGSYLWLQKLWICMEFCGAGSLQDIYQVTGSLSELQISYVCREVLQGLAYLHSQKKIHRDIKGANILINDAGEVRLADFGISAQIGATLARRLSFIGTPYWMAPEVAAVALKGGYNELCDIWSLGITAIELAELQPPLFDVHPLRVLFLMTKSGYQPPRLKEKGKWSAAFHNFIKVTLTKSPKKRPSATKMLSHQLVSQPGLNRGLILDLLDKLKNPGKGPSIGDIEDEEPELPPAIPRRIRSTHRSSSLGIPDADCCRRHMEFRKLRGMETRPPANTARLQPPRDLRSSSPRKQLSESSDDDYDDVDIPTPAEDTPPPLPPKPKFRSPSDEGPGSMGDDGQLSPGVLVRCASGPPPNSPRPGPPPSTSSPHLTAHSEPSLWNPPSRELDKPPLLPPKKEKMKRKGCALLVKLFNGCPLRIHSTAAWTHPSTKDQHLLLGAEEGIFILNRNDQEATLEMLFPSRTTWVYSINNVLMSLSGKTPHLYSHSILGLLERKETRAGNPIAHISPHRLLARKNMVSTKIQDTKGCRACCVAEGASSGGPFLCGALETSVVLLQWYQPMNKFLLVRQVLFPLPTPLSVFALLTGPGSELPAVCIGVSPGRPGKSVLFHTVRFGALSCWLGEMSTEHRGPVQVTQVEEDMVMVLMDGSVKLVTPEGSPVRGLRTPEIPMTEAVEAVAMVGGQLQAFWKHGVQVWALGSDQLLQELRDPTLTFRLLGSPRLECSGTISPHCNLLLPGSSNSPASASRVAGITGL
Method: SLP76 Phosphorylation Assay
Intracellular HPK1 inhibitory activity was tested by the detection of SLP76 phosphorylation at S376.
Preparation of 1000× drug stock plate: a 1000× compound stock plate was prepared. […] The compound stock plate was sealed with a sealing film and stored in a −20° C. refrigerator for later use.
Preparation of Beads wash buffer: 0.1 mL FBS and 0.4 mL 0.5 M EDTA (with a final concentration of 2 mM) were added to 100 mL PBS and stored in a 4° C. refrigerator for later use.
100× Protease Inhibitor Cocktail in 1/20 total volume was added and stored on wet ice for later use. The buffer was ready to use.
Cell inoculation and dosing: the 1000× drug stock plate was taken and melted at room temperature in the dark. […] Jurkat cells in the logarithmic growth phase were selected and collected. […] The cells were inoculated into a 96-well plate (the volume was 90 μL per well), and a blank control well (without cells inoculation, and in which 110 μL of medium was added) was set. 10 μL of a drug-containing culture medium (10×) was transferred from the 10× drug intermediate plate into the 96-well cell plate (with a final concentration of 0.1% DMSO), and set a DMSO control group (in which 0.1% DMSO was added to the treated cells), a stimulated control group (in which 10 μL of culture medium was added to treat cells) and an unstimulated group (in which 10 μL of culture medium was added to treat cells). The wells were duplicated, gently patted, mixed, and then placed into a 5% CO2 incubator at 37° C. for 1 h.
Anti-CD3 beads stimulation: Dynabeads anti-human CD3 was taken, shaken, and mixed for 60 s. The required volume of beads was pipetted, and an equal volume or at least 1 mL of washing solution was added to wash once. Fresh complete medium was then added to resuspend and adjust the density of the beads to 4×10^7/mL, and the beads were placed on ice for later use. At the end of drug pre-incubation, the cell culture plate was taken out. 10 μL Dynabeads anti-human CD3 was added to each well to treat the cells, and 10 μL the culture medium was added to the unstimulated group. The cell culture plate was shaken to mix well at 2500 rpm for 10 s, and then placed into a 5% CO2 incubator at 37° C. and continued to culture for 20 min.
Detection of p-SLP76 protein level: PathScan Phospho-SLP-76 (Ser376) Sandwich ELISA Kit was applied to detect p-SLP76 protein level. At the end of the Anti-CD3 beads stimulation, the cell culture plate was removed from the incubator. […] After lysis, the cell culture plate was centrifuged at 4° C., 400×g for 5 min. 25 μL of sample and 75 μL of sample diluent were added to each well, and the plate was placed in a 5% CO2 incubator at 37° C. for 2 h. The subsequent detection steps were carried out following the kit instructions, and the absorbance (OD value) of each well was read at 450 nm by a microplate reader.
`CN1CC2CCC(C1)N2C(=O)N1CCc2cc(-c3cnc4[nH]cc(Cl)c4c3)cc([C@@H]3COCCN3)c2C1` [Compound Z472] gave an IC50 of 216 nM. For `Cc1c[nH]c2ncc(-c3cc4c(c([C@@H]5COCCN5)c3)CN(C(=O)N3CC5CC(C3)O5)CC4)cc12` [Compound Z516, (6-oxa-3-azabicyclo[3.1.1]heptan-3-yl)-(6-(3-methyl-1H-pyrrolo[2,3-b]pyridin-5-yl)-8((R)-morpholin-3-yl)-3,4-dihydroisoquinolin-2(1H)-yl)methanone], the IC50 was 161 nM. In the case of `CN1C2CCC1CN(C(=O)N1CCc3cc(-c4cnc5[nH]cc(Cl)c5n4)cc([C@@H]4COCCN4)c3C1)C2` [Compound Z575, (6-(7-chloro-5H-pyrrolo[2,3-b]pyrazin-2-yl)-8-((R)-morpholin-3-yl)-3,4-dihydroisoquinolin-2(1H)-yl)(8-methyl-3,8-diazabicyclo[3.2.1]octan-3-yl)methanone], the IC50 is reported as 420 nM. Work on `CN1C2CCC1CN(C(=O)N1CCc3cc(-c4cnc5[nH]cc(Cl)c5c4)cc([C@@H]4COCCN4)c3C1)C2` [Compound Z470] yielded an IC50 of 127 nM. `Cc1c[nH]c2ncc(-c3cc4c(c([C@@H]5COCCN5)c3)CN(C(=O)N3CC5(CCOCC5)C3)CC4)cc12` [Compound Z563, (R)-(6-(3-methyl-1H-pyrrolo[2,3-b]pyridin-5-yl)-8-(morpholin-3-yl)-3,4-dihydroisoquinolin-2(1H)-yl)(7-oxa-2-azaspiro[3.5]nonan-2-yl)methanone] showed an IC50 of 174 nM. `Cc1c[nH]c2ncc(-c3cc4c(c([C@@H]5COCCN5)c3)CN(C(=O)N3CCO[C@H](C)C3)CC4)cc12` [Compound Z484, (6-(3-methyl-1H-pyrrolo[2,3-b]pyridin-5-yl)-8-((R)-morpholin-3-yl)-3,4-dihydroisoquinolin-2(1H)-yl)((R)-2-methylmorpholino)methanone] showed an IC50 of 364 nM. Molecule `Cc1n[nH]c2ncc(-c3cc4c(c([C@@H]5COCCN5)c3)CN(C(=O)C(C)(C)O)CC4)cc12` [Compound Z455, (R)-2-hydroxy-2-methyl-1-(6-(3-methyl-1H-pyrazolo [3,4-b]pyridin-5-yl)-8-(morpholin-3-yl)-3,4-dihydroisoquinolin-2(1H)-yl)propan-1-one] has an IC50 of 4430 nM. Molecule `COC1(C(=O)N2CCc3cc(-c4cnc5[nH]cc(C)c5c4)cc([C@@H]4COCCN4)c3C2)CC1` [Compound Z373, (R)-(1-methoxycyclopropyl)(6-(3-methyl-1H-pyrrolo[2,3-b]pyridin-5-yl)-8-(morpholin-3-yl)-3,4-dihydroisoquinolin-2(1H)-yl)methanone] has an IC50 of 159 nM. `CO[C@@H]1CCN(C(=O)N2CCc3cc(-c4cnc5[nH]cc(C)c5c4)cc([C@@H]4COCCN4)c3C2)C1` [Compound Z478] showed an IC50 of 329 nM. For `O=C(N1CCC(O)CC1)N1CCc2cc(-c3cnc4[nH]cc(Cl)c4c3)cc([C@@H]3COCCN3)c2C1` [Compound Z555, (R)-(6-(3-chloro-1H-pyrrolo[2,3-b]pyridin-5-yl)-8-(morpholin-3-yl)-3,4-dihydroisoquinolin-2(1H)-yl)(4-hydroxypiperidin-1-yl)methanone], the IC50 was 481 nM. Work on `O=C(N1CCc2cc(-c3cnc4[nH]cc(F)c4n3)cc([C@@H]3COCCN3)c2C1)N1CC2CCC(C1)O2` [Compound Z522, (8-oxa-3-azabicyclo[3.2.1]octan-3-yl)(6-(7-fluoro-5H-pyrrolo[2,3-b]pyrazin-2-yl)-8-((R)-morpholin-3-yl)-3,4-dihydroisoquinolin-2(1H)-yl)methanone] yielded an IC50 of 110 nM. `Cc1c[nH]c2ncc(-c3cc4c(c([C@@H]5COCCN5)c3)CN(CC3(O)CCOCC3)CC4)cc12` [Compound Z538, (R)-4-((6-(3-methyl-1H-pyrrolo[2,3-b]pyridin-5-yl)-8-(morpholin-3-yl)-3,4-dihydroisoquinolin-2(1H)-yl)methyl)tetrahydro-2H-pyran-4-ol] gave an IC50 of 1050 nM. `CCc1c[nH]c2ncc(-c3cc4c(c([C@@H]5COCCN5)c3)CN(C(=O)C(C)(C)O)CC4)nc12` [Compound Z540, (R)-1-(6-(7-ethyl-5H-pyrrolo[2,3-b]pyrazin-2-yl)-8-(morpholin-3-yl)-3,4-dihydroisoquinolin-2(1H)-yl)-2-hydroxy-2-methylpropan-1-one] showed an IC50 of 524 nM.

Source: patent US20250084078A1, “FUSED RING-SUBSTITUTED SIX-MEMBERED HETEROCYCLIC COMPOUND, AND PREPARATION METHOD THEREFOR AND USE THEREOF” (GENFLEFT THERAPEUTICS (SHANGHAI) INC., priority 2022, published 2025)
